Converted amounts (≈) assume the structure as drawn. Like-named read-outs stand apart in the source and are kept apart here.
Experiments:
[1] = system: crude membrane containing Cho1; assay: radioactive PS synthase assay on crude membrane containing Cho1; assay type: biochemical, Candida albicans; details: compounds at 1 mM
Experimental: Enzymatic activity of Cho1 in the presence of the compounds was measured using the radioactive PS synthase assay. For purified Cho1, the procedure was fully described in reference ([33]). Briefly, 1–2 μg of purified Cho1 was added to the reaction containing 50 mM Tris-HCl (pH 8.0), 1 mM MnCl2, 0.1% Triton X-100, 0.04% digitonin, 0.1 mM (4.7 mol %), 16:0 CDP-DAG (Avanti, cat# 870510), and 0.5 mM L-serine [spiked with 5% (by volume) L-[^3H]-serine (15 Ci/mmol)] at a total volume of 100 µL, in the presence of 100 µM of each compound or equivalent DMSO solvent. The reaction was conducted at 30°C for 30 min, and [^3H]PS produced in the reaction was measured using a liquid scintillation counter. For crude membrane samples, crude membrane preps from wildtype and cho1ΔΔ strains were collected and assayed as described in reference ([33]) with the exception that 2 mM L-serine [spiked with 5% (by volume) L-[^3H]-serine (15 Ci/mmol)] was used in each reaction. A final concentration of 1 mM of each compound was used for the crude membrane samples.

[2] = system: wild-type C. albicans strain SC5314; assay: plate assays, CFU counting and growth curves in minimal media; assay type: cell-based, Candida albicans; details: for fungistatic or fungicidal effect (CFUs vs pre-incubation): 30 µM ebselen, 430 µM LOC14, 170 µM CBR-5884; for fungistatic or fungicidal effect (CFUs vs pre-incubation) / rescue of CFUs by 1 mM ethanolamine: 24 h; for rescue of CFUs by 1 mM ethanolamine: optimized drug concentrations (CBR-5884 ≥170 µM), minimal medium
Experimental: The antifungal effects of ebselen, LOC14 ,and CBR-5884 on live cells were further evaluated by plate assays and growth curves. First, we tried to determine if the inhibitory effects of these compounds were fungistatic or fungicidal. It should be highlighted that in contrast to the MIC assays, the plate assays and growth curve analyses necessitated a greater initial inoculum (OD600 of 0.05 as opposed to 0.00004) for detection. Additionally, a reduced incubation temperature of 30°C instead of 37°C was required to inhibit the hyphal formation, which, in turn, required the adjustment of compound concentrations used. For this, wild-type C. albicans strain SC5314 was grown with varying concentrations of ebselen, LOC14, and CBR-5884 in minimal media at 30°C for 24 h, along with a cho1ΔΔ strain as a control. […] To further determine the optimized inhibitory concentrations and whether the inhibition is fungistatic or fungicidal, wild-type C. abicans SC5314 was then incubated with ebselen, LOC14, and CBR-5884 in a dosage series with 10 µM increments within the inhibition range determined above, and colony forming units (CFUs) were counted after 24 h incubation.
Plate assays and growth curves were conducted in minimal media or minimal media supplemented with 1 mM ethanolamine (ETA). Wild-type SC5314 and cho1ΔΔ strains were grown in YPD overnight and washed three times with H2O before inoculation. The starting OD600 is 0.05 for both plate assays and growth curves. For plate assays, both wild-type and cho1ΔΔ strains were grown in flat-bottom 96-well plates at a final volume of 200 µL, in the presence of different compounds or DMSO as indicated at 30°C. The final DMSO concentration was maintained at 2.5% across all treatments. A Leica inverted microscope was then used to visualize growth after 24 h incubations. In the meantime, cells grown in different compounds were subjected to live cell counting. Cell cultures from flat-bottom 96-well plates after 24 h incubation were diluted 100–10,000 times before plating on the minimal media, and the total colony-forming unit (CFU) was kept within 200 for each plate. A total of six biological replicates were done in each condition.
The growth curves with LOC14 and CBR-5884 treatments were measured from 2 to 30 h with OD600 measurements every 2 h. A final concentration of 170 µM CBR-5884, 430 µM LOC14, and 5 mM serine was added into each group as indicated. To test the stability of CBR-5884, minimal medium supplemented with 170 µM CBR-5884 or equivalent DMSO was agitated for 12 h before the introduction of wildtype C. albicans SC5314 strain, and growth curves were recorded from 0 to 14 h with OD600 measurement every 2 h. To check the resistance of C. albicans in CBR-5884, SC5314 strain was grown in 170 µM CBR-5884 for 12 and 24 h before being diluted in fresh minimal medium supplemented with fresh 170 µM CBR-5884 or equivalent DMSO. The growth curves were recorded from 0 to 14 h with OD600 measurement every 2 h. The final DMSO concentration was maintained at 1.7% across all treatments.

[3] = system: wild-type C. albicans strain SC5314; assay: CLSI MIC broth microdilution; assay type: cell-based, Candida albicans; details: Candida albicans
Experimental: We then tested the effects of the six compounds on live cells by determining the minimal inhibitory concentrations (MICs) of these compounds. Following the standard Clinical & Lab Standards Institute (CLSI) MIC broth microdilution methods, wild-type C. albicans strain SC5314 was grown with avasimibe, CBR-5884, tideglusib, ebselen, ML-345, and LOC14 in RPMI MOPS medium (pH 7.0) or alternatively in minimal medium or minimal medium with HEPES (pH 7.0) at 37°C for 48 h, along with a cho1ΔΔ strain as a control (Fig. 3A through C). The concentration of the compounds was varied from 0.5 to 250 µM. […] Ebselen, LOC14, and CBR-5884, on the contrary, stopped cell growth at different concentrations in all three media, with MICs ranging between 7.8 and 31.3 μM (Fig. 3A through D). […] Specific MIC values are summarized in Fig. 3D for all the compounds.
Minimum inhibitory concentration (MIC) was determined following Clinical & Lab Standards Institute (CLSI) MIC broth microdilution protocol (Licensed to Todd Reynolds, license # Ord-1138682) ([98], [99]). Briefly, stock solutions of different compounds (purchased from MedChemExpress) were prepared at a concentration of 10 mM in DMSO and subsequently diluted as required in the same solvent. Wild-type C. albicans strain SC5314, as well as four additional wild-type strains—GDH2346, 3153A, TFPY412, and TFPY2307, were cultured overnight in YPD medium at 30°C, washed with water three times, and then diluted to a concentration of 2 × 10^3 cells/mL (OD600 = 0.00008) in one of the three media [minimal medium, minimal medium buffered with 50 mM HEPES (pH 7.0) and RPMI MOPS (pH 7.0)]. The cho1ΔΔ strain was also included as a control. A volume of 100 µL from each cell suspension was dispensed into the wells of a flat-bottom 96-well plate. An additional 100 µL of corresponding medium, containing twice the final desired concentration of each drug, was added to each well, leading to a final initial inoculum of 1 × 10^3 cells/mL (OD600 = 0.00004). The final DMSO concentration was maintained at 2.5% across all treatments. Following preparation, the plates were incubated at 37°C for 48 h and photos were taken with a Bio-Rad Gel Doc XR + Imaging System.

[4] = SC5314, 48 h, pH 7, read-out: Minimal Inhibitory Concentration (MIC): MM, HEPES 7.0
[5] = SC5314, 48 h, pH 7, read-out: Minimal Inhibitory Concentration (MIC): RPMI, MOPS 7.0
[6] = SC5314, 48 h, read-out: MICs across all three media
[7] = SC5314, 48 h, read-out: Minimal Inhibitory Concentration (MIC): MM

SMILES | PS production in native crude membranes [1] | CFU/μL after 24 h incubation with ethanolamine ([2]; 30 µM ebselen + 1 mM ETA) [CFU/μL] | fungistatic or fungicidal effect (CFUs vs pre-incubation) [2] | rescue of CFUs by 1 mM ethanolamine [2] | MIC ([3]; SC5314, RPMI MOPS pH 7.0, 37°C, 48 h, read-out: Minimal Inhibitory Concentration (MIC): RPMI, MOPS 7.0) [µM] | MIC ([3]; SC5314, minimal medium with 50 mM HEPES pH 7.0, 37°C, 48 h, read-out: Minimal Inhibitory Concentration (MIC): MM, HEPES 7.0) [µM] | MIC ([3]; SC5314, minimal medium, 37°C, 48 h, read-out: Minimal Inhibitory Concentration (MIC): MM) [µM] | MIC ([3]; SC5314, minimal medium, minimal medium HEPES, RPMI MOPS, 37°C, 48 h, read-out: MICs across all three media) [µM] | growth curve in presence or absence of ethanolamine ([2]; 430 µM LOC14, 0-30 h) | MIC [3, 4] [µM] | MIC [3, 5] [µM] | MIC [3, 6] [µM] | MIC [3, 7] [µM] | effect of ethanolamine on growth rate and lag time ([2]; 170 µM CBR-5884, 1 mM ethanolamine) | effect of 5 mM serine on growth inhibition ([2]; 170 µM CBR-5884, growth curve 0-30 h) | duration of growth delay ([2]; 170 µM CBR-5884, minimal medium, 30°C) [h]
O=c1c2ccccc2[se]n1-c1ccccc1 [Ebselen] | decreased PS production | 0 | fungicidal effect | did not rescue | 7.8 (≈ 2.14 µg/mL) | 15.6 (≈ 4.28 µg/mL) | 7.8 (≈ 2.14 µg/mL) | 7.8 to 31.3 (≈ 2.14 to 8.58 µg/mL) | – | – | – | – | – | – | – | –
O=C(C1CC1)N1CCN(Cn2sc3ccccc3c2=O)CC1 [LOC14] | decreased PS production | – | fungistatic effect | did not rescue | – | – | – | – | no cells grew | 15.6 (≈ 4.95 µg/mL) | 31.3 (≈ 9.94 µg/mL) | 7.8 to 31.3 (≈ 2.48 to 9.94 µg/mL) | 15.6 (≈ 4.95 µg/mL) | – | – | –
CCOC(=O)c1sc(NC(=O)c2ccco2)c(SC#N)c1C [CBR-5884] | decreased PS production | – | fungistatic effect | significantly higher CFUs | – | – | – | – | – | 31.3 (≈ 10.5 µg/mL) | 31.3 (≈ 10.5 µg/mL) | 7.8 to 31.3 (≈ 2.62 to 10.5 µg/mL) | 7.8 (≈ 2.62 µg/mL) | significantly increased the growth rate and decreased the lag time | serine did not help the cells recover | 12
